Assay [1] has as its system HUVEC. The assay can be described thus: Modified Boyden chamber migration assay. The conditions noted are these: for Chemotactic cell migration versus no treatment: 4 hours, clustered Vasculotide 2 nM and 10 nM. It is filed as cell-based, human.
Protocol: To test if Vasculotide, like Ang 1, was capable of promoting these processes, the effect of Vasculotide on EC migration was tested using a modified Boyden chamber assay. HUVEC were seeded at a density of 8.4×10^4 cells in 500 μl of F12 growth media plus 0.1% FBS in the upper chamber of an 8 μm pore size modified Boyden chamber (Falcon). 500 μl of F12 media plus 0.1% FBS plus various growth factors (Ang 1 (R& D Systems), unclustered or clustered Vasculotide, VEGF (R&D Systems) or clustered Vasculotide in combination with VEGF) or controls were placed in the bottom chamber. Cells were allowed to migrate for 4 hours in a 37° C., 5% CO2 incubator. Nonmigrating cells were scraped off, and filters were fixed in 100% methanol for 5 minutes, stained with Harris' Hematoxylin (BDH) for 10 minutes and washed twice with tap water for 3 minutes each. Filters were then mounted using Aquapolymount mounting medium. Cells that had migrated more than 50% of the way through the pore were scored as positive for migration.
Student's t test was used to test the statistical significance with a 95% confidence interval. Stimulations were performed in triplicate and migrating cells in 6 microscopic fields per replicate were counted.
Assay [2] deals with T1, Tie 2 (Homo sapiens, UniProt Q02763). Kind of assay: In vitro pull down assay of Tie 2 from EaHy926 cell lysate. It is filed as binding. Also on record: a cell lysate of EaHy926 endothelial cells (which express high levels of Tie 2) was prepared; endogenous in cells; host or cells: EaHy926 endothelial cells. As for the experimental part:
In this example, the ability of Vasculotide to bind the Tie 2 receptor, despite the engineered modifications, was tested using an in vitro pull down assay. In the pull down assay, a cell lysate of EaHy926 endothelial cells (which express high levels of Tie 2) was prepared in Phospho Lipase Cγ lysis buffer (50 mM Hepes buffer pH 7.5, 150 mM NaCl, 10% glycerol, 1% Triton X-100, 1.5 mM MgCl2, 1.0 mM EGTA, 10 mM NaPPi, […], 2 mM Na3VO4, 1× aprotinin, 1× leupeptin and 1×PMSF). The whole cell lysate was mixed with either unclustered biotinylated Vasculotide or biotinylated irrelevant peptide. The biotinylated peptides then were isolated with avidin agarose and subsequently tested for their ability to precipitate Tie 2 via standard immunoblot analysis using anti-Tie 2 antibody.

The subject of assay [3] is HUVEC. The assay can be described thus: Serum withdrawal-induced cell death, Cell Death ELISA. The format is cell-based, human. The settings on record: F12 plus 0.1% FBS, 16 hours; clustered Vasculotide at 500 pM (p=0.002) vs non-treated cells. As for the experimental part: Based on the fact that clustered Vasculotide strongly activates the anti apoptotic protein AKT (see Example 3), the ability of Vasculotide to protect ECs from serum withdrawal-induced death was examined. To do so, HUVEC were maintained in F12 media plus 0.1% FBS for 16 hours in the presence of various concentrations of unclustered or clustered Vasculotide, followed by analysis of cell apoptosis via cell death ELISA. Analysis of apoptosis was performed using Cell Death ELISA Plus (Roche) according to manufacturers' specifications. The results are shown in FIG. 2A, in which values were normalized to basal levels of cell death for HUVECs maintained in full 10% FBS, growth factor supplemented F12 media. The results shown represent the mean of three replicates plus or minus 1 SD. Student's T-test was used for statistical analysis with P value indicated.
(In general: In an ELISA, binding on a coated surface is turned into a signal by an enzyme label.)

A further assay concerns CD1 mice. It is filed as in vivo. The settings on record: 50 μg intravenously, peripheral blood 24 hours post injection. The protocol: In this example, the effect of systemically administered Vasculotide on circulating endothelial cells was examined. Three month old CD1 mice were injected intravenously with either PBS (vehicle) or 50 μg of clustered Vasculotide. Twenty four hours post injection, peripheral blood was collected on heparin via cardiac puncture and nonhematopoietic circulating endothelial cells (CECs) were sorted using a four channel FACS approach. CECs were defined as CD13^+/VEGFR-2^+/CD45^−, Viable (propidium iodide). Cell numbers reported are number of viable cells/μl of peripheral blood. Total white blood cell count was also determined using a hemocytometer.

The target of assay [4] is T1, Tie 2. Kind of assay: Tie 2 activation (pY992 Tie 2 immunoblot) in HUVEC. It is filed as cell-based. Further details: downstream signalling pathways in human umbilical vein endothelial cells (HUVEC) (Cambrex, N.J.); host or cells: HUVEC, passage 3-9. The protocol:
(§1) Having established that Vasculotide was able to bind Tie 2 (see Example 2), the ability of Vasculotide, when clustered with avidin in a 4:1 ratio (Vasculotide:avidin), to activate the Tie 2 receptor was tested by examining several well established downstream signalling pathways in human umbilical vein endothelial cells (HUVEC) (Cambrex, N.J.). Such signalling pathways are described in, for example, Kim, I. et al. (2000) Circ. Res. 9:952-959; Fujikawa, K. et al. (1999) Exp. Cell. Res. 2:663-672; Babaei, S. et al. (2003) Am. J. Pathol. 6:1927-1936.
(§2) HUVEC were grown on 6-well or 10 cm plates (Nunc) coated with gelatin (Sigma). HUVEC were cultured in F12 growth medium containing 10% fetal bovine serum (FBS), 0.1 mg/ml heparin sulphate, 1× penicillin, 1× streptomycin, 1× glutamine, VEGF 10 ng/ml, EGF 10 ng/ml, bFGF 5 ng/ml. All HUVEC were used between passage 3-9.
HUVEC were stimulated with one of either Ang 1 (R&D Systems), Vasculotide, avidin or clustered Vasculotide (preclustered with a 4:1 molar ratio of peptide:avidin in PBS for 2 hours at 4° C.) at various doses. Stimulations with Vasculotide were performed in full serum containing growth media for 15 minutes unless otherwise indicated. Cell lysate preparations and immunoblot analysis were performed by standard methods. Antibodies used for immunoblotting (in this and/or subsequent Examples) were monoclonal anti Tie 2 (Pharminogen), polyclonal anti pY992 Tie 2, (Cell Signaling Technology), polyclonal anti MAPK (Cell Signaling Technology), monoclonal anti phospho MAPK (Cell Signaling Technology), polyclonal anti AKT (Cell Signaling Technology), polyclonal anti pS473 AKT (Cell Signaling Technology), monoclonal anti pS1177 eNOS (BD Biosciences), polyclonal anti pY397 FAK (Biosource), polyclonal anti FAK (Santa Cruz), polyclonal anti smooth muscle actin-Cy3 direct conjugate (Dako), polyclonal anti PECAM (Pharminogen) and polyclonal anti smooth muscle actin (Sigma).
To examine Tie 2 activation kinetics, HUVEC were stimulated with native Ang 1 or clustered Vasculotide for various times. Stimulation was performed in 10% FBS. […] Overall, activation of the receptor by either Ang 1 or clustered Vasculotide followed a very similar time course with phosphorylation returning to almost basal levels sometime after 2 hours.
For orientation: Immunoblotting shows a protein as a band on a membrane.

The subject of the next assay is MAPK, AKT and eNOS. The assay can be described thus: Phosphorylation of downstream signalling proteins in HUVEC (immunoblot). It is filed as cell-based, human. The protocol: as §1, §2
HUVEC were stimulated with one of either Ang 1 (R&D Systems), Vasculotide, avidin or clustered Vasculotide (preclustered with a 4:1 molar ratio of peptide:avidin in PBS for 2 hours at 4° C.) at various doses. Stimulations with Vasculotide were performed in full serum containing growth media for 15 minutes unless otherwise indicated. Cell lysate preparations and immunoblot analysis were performed by standard methods. […]

The next assay relates to MMP2. The assay can be described thus: Gelatin zymography of HUVEC conditioned media. It is filed as cell-based, human. The conditions noted are these: HUVEC, 0.1% FBS, 16 h, various concentrations. As for the experimental part:
In vivo, ECs can not migrate until they secrete enzymes necessary to break down components of the extra cellular matrix. Gelatin zymography was employed to determine if clustered Vasculotide promoted secretion of MMP2. To perform the zymography, HUVEC were cultured in F12 media plus 0.1% FBS and stimulated for 16 h with VEGF, unclustered Vasculotide or clustered Vasculotide at various concentrations. Conditioned media was centrifuged to remove cellular debris and prepared for gel electrophoresis using non-reducing conditions. Gels were washed twice for 30 minutes in 2.5% Triton X-100 to remove sodium dodecyl sulfate and were then incubated in substrate buffer (50 mmol/L Tris-HCl, pH 8.8, 5 mmol/L CaCl2) for 16 hours at 37° C. Gels were then stained with 0.5% Coomassie blue in 30% methanol/10% acetic acid for 2 hours at room temperature and destained in 50% methanol/10% acetic acid. The presence of metalloproteinases was indicated by unstained proteolytic zones in the gel.

T1 sequence (Q02763 23-1124): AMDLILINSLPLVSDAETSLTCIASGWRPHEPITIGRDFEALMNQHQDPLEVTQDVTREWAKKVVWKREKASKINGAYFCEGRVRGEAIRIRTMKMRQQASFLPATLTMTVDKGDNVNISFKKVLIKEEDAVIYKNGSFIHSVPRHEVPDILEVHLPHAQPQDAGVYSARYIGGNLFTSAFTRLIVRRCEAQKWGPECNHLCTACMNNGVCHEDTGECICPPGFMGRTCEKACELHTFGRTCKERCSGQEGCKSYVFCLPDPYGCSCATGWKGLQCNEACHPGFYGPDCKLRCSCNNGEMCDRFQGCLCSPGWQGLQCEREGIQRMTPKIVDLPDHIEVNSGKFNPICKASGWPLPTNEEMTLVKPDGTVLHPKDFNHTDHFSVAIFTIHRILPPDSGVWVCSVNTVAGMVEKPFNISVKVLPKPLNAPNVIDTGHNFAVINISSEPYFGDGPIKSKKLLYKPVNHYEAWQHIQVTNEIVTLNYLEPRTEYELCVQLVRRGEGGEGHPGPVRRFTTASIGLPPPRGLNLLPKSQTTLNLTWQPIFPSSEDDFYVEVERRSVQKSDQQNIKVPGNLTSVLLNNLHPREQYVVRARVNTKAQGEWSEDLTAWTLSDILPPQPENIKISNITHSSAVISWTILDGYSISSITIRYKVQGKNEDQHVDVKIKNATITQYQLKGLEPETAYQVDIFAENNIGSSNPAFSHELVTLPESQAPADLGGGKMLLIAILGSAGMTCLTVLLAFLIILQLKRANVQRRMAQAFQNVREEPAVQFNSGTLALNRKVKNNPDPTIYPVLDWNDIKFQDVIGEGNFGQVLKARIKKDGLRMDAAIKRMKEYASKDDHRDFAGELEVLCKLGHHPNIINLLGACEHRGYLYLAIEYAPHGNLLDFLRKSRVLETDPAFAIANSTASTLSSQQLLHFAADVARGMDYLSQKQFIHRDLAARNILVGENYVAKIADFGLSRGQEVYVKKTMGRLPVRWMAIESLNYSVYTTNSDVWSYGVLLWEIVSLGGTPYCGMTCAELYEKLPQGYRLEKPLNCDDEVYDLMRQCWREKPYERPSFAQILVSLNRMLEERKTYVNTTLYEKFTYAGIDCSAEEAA

On to “Vasculotide: biotinylated T7 peptide-PEG: Cys-His-His-His-Arg-His-Ser-Phe (SEQ ID NO: 2) conjugated to EZ-link-PEO-maleimide-biotin”, for which the “Chemotactic cell migration versus no treatment” value in the assay with HUVEC [1] is “did not promote migration above that seen in the untreated sample”. Moreover, the “Precipitation of Tie 2 (avidin agarose pull down, anti-Tie 2 immunoblot)” value in the assay with Tie 2 [2] (EaHy926 whole cell lysate, unclustered biotinylated peptide) is “able to precipitate Tie 2”. Also, the “Apoptosis / survival after serum withdrawal” value in the assay with HUVEC [3] is “no effect on survival”. Also, in the assay with CD1 mice, the “Number of circulating endothelial cells” value is given as “decrease in the number of circulating endothelial cells”. For the same substance, in the assay with Tie 2 [4] (avidin alone and unclustered Vasculotide), the “Tie 2 phosphorylation without preclustering” value was “only when preclustered with avidin was Vasculotide able to stimulate Tie 2 phosphorylation”.
Consider “clustered Vasculotide: Vasculotide clustered with avidin in a 4:1 ratio, an obligate tetrameric compound”, for which the “Chemotactic cell migration versus no treatment” value in the assay with HUVEC [1] is reported as “significant increases in chemotactic cell migration”. In the assay with HUVEC [1] (VEGF 100 ng/ml, Ang 1 500 ng/ml (FIG. 2B legend)), the “Migration compared with VEGF or Ang 1” value was “not significantly different than that seen in samples treated with VEGF or Ang 1”. Also, the “Competition for available Tie 2 in the pull down” value with Tie 2 [2] (ten fold excess, preclustered with soluble avidin) is given as “able to abolish this interaction”. In addition, the “Apoptosis / survival after serum withdrawal” value in the assay with HUVEC [3] is listed as “statistically significant decrease in apoptosis”. The “Ability to activate Tie 2 phosphorylation, time course, versus Ang 1 (400 ng/ml)” value in the assay with Tie 2 [4] (2 nM, 10% FBS) is listed as “compared favorably to Ang 1”. The “Tie 2 receptor activation at high concentration” value in the assay with Tie 2 [4] (50 nM) is recorded as “not capable of activating Tie 2 receptor activity”. Besides, the “Optimal concentration for Tie 2 activation (pY992 Tie 2)” value with Tie 2 [4] (15 minutes) was 5-10 nM. For the same substance, in the assay with MAPK, AKT and eNOS (10% FBS), the “pMAPK and pAKT in the time course” value is “marked increases in pMAPK and pAKT”. Also, the “Phosphorylation of Tie 2-responsive proteins MAPK, AKT and eNOS” value in the assay with MAPK, AKT and eNOS (coincident with receptor activation) was “phosphorylation of several known Tie 2-responsive proteins including MAPK, AKT and eNOS, was observed”. In addition, the “Secretion of MMP2 (gelatin degradation, pro and active forms)” value in the assay on MMP2 is “dose-dependently degraded gelatin”.
